Experimental data from ChEMBL document CHEMBL4033647, “Novel coumarin- and quinolinone-based polycycles as cell division cycle 25-A and -C phosphatases inhibitors induce proliferation arrest and apoptosis in cancer cells” (Eur J Med Chem, 2017).
Active and inactive are the calls of the source. The calls are words filed in the database; no cut-off is given here.

Legend:
A-431 [1] = test: Effect on CDC25C splice variant protein expression in human A431 cell extract at 50 uM after 24 hrs by Western blot analysis; format: functional, cell-based
[2] = biological target: T1, M-phase inducer phosphatase 3 (Homo sapiens) (UniProt P30307); test: Inhibition of CDC25C in human A431 cells assessed as increase in CDK-mediated phosphorylation of histone H3 at Ser10 residues at 10 uM after 24 hrs by Western blot analysis; format: cell-based
T1 sequence (whole entry): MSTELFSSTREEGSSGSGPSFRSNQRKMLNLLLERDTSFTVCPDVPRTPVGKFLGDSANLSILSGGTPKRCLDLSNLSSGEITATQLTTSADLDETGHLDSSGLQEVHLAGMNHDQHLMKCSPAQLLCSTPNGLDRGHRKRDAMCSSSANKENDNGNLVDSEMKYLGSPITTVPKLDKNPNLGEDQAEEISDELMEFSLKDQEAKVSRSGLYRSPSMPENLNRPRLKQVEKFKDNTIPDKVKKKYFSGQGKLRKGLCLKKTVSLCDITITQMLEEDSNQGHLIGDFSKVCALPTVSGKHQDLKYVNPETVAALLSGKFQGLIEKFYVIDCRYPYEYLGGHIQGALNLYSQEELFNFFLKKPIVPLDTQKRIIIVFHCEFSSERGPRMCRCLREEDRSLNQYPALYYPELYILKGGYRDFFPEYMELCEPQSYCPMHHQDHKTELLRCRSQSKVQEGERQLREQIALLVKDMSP

A-431 [3] = test: Cell cycle arrest in human A431 cells assessed as accumulation at G2/M phase at 50 uM after 24 hrs by propidium iodide staining based flow cytometric analysis (reference value: 26.23%); format: functional
A-431 [4] = test: Cell cycle arrest in human A431 cells assessed as accumulation at subG1 phase at 50 uM after 24 hrs by propidium iodide staining based flow cytometric analysis (reference value: 3.40%); format: functional
A-431 [5] = test: Growth inhibition of human A431 cells at 10 uM by trypan blue dye based assay; format: functional, cell-based; conditions: TDE = time-dependent effect
A-431 [6] = test: Cell cycle arrest in human A431 cells assessed as accumulation at S phase at 10 uM after 24 hrs by propidium iodide staining based flow cytometric analysis (reference value: 17.33%); format: functional
[7] = Cytotoxicity against human U373n cells assessed as reduction in cell viability after 72 hrs by MTT assay; format: functional, cell-based
[8] = Potency index, ratio of NSC95397 IC50 to compound IC50 against human U373n cells; format: functional
A-431 [9] = test: Induction of apoptosis in human A431 cells assessed as PARP cleavage at 10 uM after 24 hrs by Western blot analysis; format: functional, cell-based
A-431 [10] = test: Cytotoxicity against human A431 cells assessed as reduction in cell viability after 24 hrs by MTT assay; format: functional, cell-based; conditions: A-431, 24 h
A-431 [11] = test: Cytotoxicity against human A431 cells assessed as reduction in cell viability at 10 uM after 24 hrs by MTT assay; format: functional
A-431 [12] = test: Cell cycle arrest in human A431 cells after 24 hrs by propidium iodide staining based flow cytometric analysis; format: functional
[13] = biological target: T1, M-phase inducer phosphatase 3 (Homo sapiens); test: Inhibition of CDC25C in human A431 cells assessed as increase in phosphorylation of CDK1 at Thr14/Tyr15 residues at 50 uM after 24 hrs by Western blot analysis; format: cell-based
A-431 [14] = test: Cell cycle arrest in human A431 cells assessed as accumulation at subG1 phase at 10 uM after 24 hrs by propidium iodide staining based flow cytometric analysis (reference value: 3.40%); format: functional
A-431 [15] = test: Cell cycle arrest in human A431 cells assessed as accumulation at G2/M phase at 10 uM after 24 hrs by propidium iodide staining based flow cytometric analysis (reference value: 26.23%); format: functional
A-431 [16] = test: Induction of apoptosis in human A431 cells assessed as caspase-3 cleavage at 10 uM after 24 hrs by Western blot analysis; format: functional, cell-based
[17] = biological target: T2, M-phase inducer phosphatase 3 (Homo sapiens, UniProt P30307); test: Inhibition of recombinant human full length GST-tagged CDC25C expressed in Escherichia coli BL21-DE3 pLysS using 3-O-methylfluorescein phosphate as substrate after 2 hrs by fluorimetric analysis
T2 sequence (P30307 whole entry): T1 sequence (whole entry)

A-431 [18] = test: Decrease in CDC25C protein expression level in human A431 cell extract at 50 uM after 24 hrs by Western blot analysis; format: functional, cell-based
Hs 683 = test: Cytotoxicity against human Hs683 cells assessed as reduction in cell viability after 72 hrs by MTT assay; format: functional, cell-based; conditions: Hs 683, 72 h
A549 = test: Cytotoxicity against human A549 cells assessed as reduction in cell viability after 72 hrs by MTT assay; format: functional, cell-based; conditions: A549, 72 h
[19] = biological target: T1, M-phase inducer phosphatase 3 (Homo sapiens); test: Inhibition of CDC25C in human A431 cells assessed as decrease in CDK-mediated phosphorylation of histone H3 at Ser10 residues at 50 uM after 24 hrs by Western blot analysis; format: cell-based
MCF7 = test: Cytotoxicity against human MCF7 cells assessed as reduction in cell viability after 72 hrs by MTT assay; format: functional, cell-based; conditions: MCF7, 72 h
A-431 [20] = test: Cytotoxicity against human A431 cells assessed as cell viability at 10 uM after 48 hrs by MTT assay; format: functional; conditions: A-431, 48 h, read-out: Activity
[21] = biological target: T3, M-phase inducer phosphatase 1 (Homo sapiens, UniProt P30304); test: Inhibition of recombinant human full length GST-tagged CDC25A expressed in Escherichia coli BL21-DE3 pLysS using 3-O-methylfluorescein phosphate as substrate after 2 hrs by fluorimetric analysis
T3 sequence (P30304 whole entry): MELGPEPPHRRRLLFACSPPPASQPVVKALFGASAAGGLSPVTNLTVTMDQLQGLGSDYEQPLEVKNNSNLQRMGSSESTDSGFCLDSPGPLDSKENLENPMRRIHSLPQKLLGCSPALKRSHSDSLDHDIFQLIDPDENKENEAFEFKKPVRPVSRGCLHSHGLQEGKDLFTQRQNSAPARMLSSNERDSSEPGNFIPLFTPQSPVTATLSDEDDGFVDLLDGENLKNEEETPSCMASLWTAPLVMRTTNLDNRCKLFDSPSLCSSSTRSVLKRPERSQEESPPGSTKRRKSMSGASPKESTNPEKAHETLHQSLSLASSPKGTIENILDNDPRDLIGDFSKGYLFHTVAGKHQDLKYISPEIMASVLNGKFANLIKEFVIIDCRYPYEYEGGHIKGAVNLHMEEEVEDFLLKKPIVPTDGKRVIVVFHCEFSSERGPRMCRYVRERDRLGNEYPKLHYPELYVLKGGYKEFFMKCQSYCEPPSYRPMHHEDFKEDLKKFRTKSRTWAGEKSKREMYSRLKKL

A-431 [22] = test: Cell cycle arrest in human A431 cells assessed as accumulation at G1 phase at 10 uM after 24 hrs by propidium iodide staining based flow cytometric analysis (reference value: 53.04%); format: functional
PC-3 = test: Cytotoxicity against human PC3 cells assessed as reduction in cell viability after 72 hrs by MTT assay; format: functional, cell-based; conditions: PC-3, 72 h
A-431 [23] = test: Cell cycle arrest in human A431 cells assessed as accumulation at S phase at 50 uM after 24 hrs by propidium iodide staining based flow cytometric analysis (reference value: 17.33%); format: functional
A-431 [24] = test: Cell cycle arrest in human A431 cells assessed as accumulation at G1 phase at 50 uM after 24 hrs by propidium iodide staining based flow cytometric analysis (reference value: 53.04%); format: functional
SK-MEL-28 = test: Cytotoxicity against human SK-MEL-28 cells assessed as reduction in cell viability after 72 hrs by MTT assay; format: functional, cell-based; conditions: SK-MEL-28, 72 h
[25] = biological target: T1, M-phase inducer phosphatase 3 (Homo sapiens); conditions: 10 to 50 uM
Description: Inhibition of CDC25C in human A431 cells assessed as increase in CDK-mediated phosphorylation of histone H3 at Ser10 residues at 10 to 50 uM after 24 hrs by Western blot analysis

[26] = biological target: T4, M-phase inducer phosphatase 2 (Homo sapiens, UniProt P30305); test: Inhibition of recombinant human GST-tagged truncated CDC25B expressed in bacterial expression system using 3-O-methylfluorescein phosphate as substrate after 2 hrs by fluorimetric analysis
T4 sequence (P30305 whole entry): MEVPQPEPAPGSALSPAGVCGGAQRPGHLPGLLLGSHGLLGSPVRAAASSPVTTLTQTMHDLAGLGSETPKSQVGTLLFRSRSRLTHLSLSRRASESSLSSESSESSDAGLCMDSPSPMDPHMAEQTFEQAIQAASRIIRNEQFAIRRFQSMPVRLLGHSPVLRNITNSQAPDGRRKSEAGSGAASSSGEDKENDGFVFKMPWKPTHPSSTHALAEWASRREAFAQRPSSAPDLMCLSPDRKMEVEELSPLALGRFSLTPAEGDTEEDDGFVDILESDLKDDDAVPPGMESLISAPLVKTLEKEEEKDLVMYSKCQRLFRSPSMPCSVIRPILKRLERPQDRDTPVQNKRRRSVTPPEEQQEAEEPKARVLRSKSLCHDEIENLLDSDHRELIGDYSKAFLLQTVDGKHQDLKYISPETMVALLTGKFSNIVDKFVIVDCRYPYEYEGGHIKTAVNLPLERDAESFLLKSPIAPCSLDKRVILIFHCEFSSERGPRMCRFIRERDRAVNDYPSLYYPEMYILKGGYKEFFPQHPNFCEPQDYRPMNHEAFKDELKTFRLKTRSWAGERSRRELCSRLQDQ

A-431 [27] = test: Induction of apoptosis in human A431 cells assessed as caspase-3 cleavage at 50 uM after 24 hrs by Western blot analysis; format: functional, cell-based

In the case of `O=C1C=CC(=O)c2c1ccc1c2c(=O)[nH]c2ccc(Cl)cc21`, the Activity (A-431 [1]) is reported as “Active”, the inhibition [2] is reported as “Active” and the Activity (A-431 [3]) is reported as 27.78%. The Activity (A-431 [4]) was 33.63%, the “growth inhibition (GI)” value (A-431 [5]) was “Tde” and the Activity (A-431 [6]) was 13.39%. The IC50 [7] was 0.1 µM, the “Ratio IC50” value [8] was 18.5 and the Activity (A-431 [9]) was “Active”. For the same compound, the IC50 (A-431 [10]) was 3.13 µM, the Activity (A-431 [11]) was over 60% and the Activity (A-431 [12]) was “Dose-dependent effect”. For the same compound, the inhibition [13] was “inactive”, the Activity (A-431 [14]) was 15.46% and the Activity (A-431 [15]) was 26.65%. For the same compound, the Activity (A-431 [16]) was “Active”, the IC50 [17] was 5.72 µM and the Activity (A-431 [18]) was “Active”. For the same compound, the IC50 (Hs 683) was 0.2 µM, the IC50 (A549) was 0.3 µM and the inhibition [19] was “inactive”. It also gave an IC50 (MCF7) of 1.2 µM, a viability at 10 µM (A-431 [20]) of 10% and an IC50 [21] of 4.33 µM. For the same compound, the Activity (A-431 [22]) was 44.5%, the IC50 (PC-3) was 0.3 µM and the Activity (A-431 [23]) was 7.07%. The Activity (A-431 [24]) was 31.53% and the IC50 (SK-MEL-28) was 0.3 µM.

With `O=C1C=CC(=O)c2c1ccc1c2c(=O)oc2ccccc21` the Activity (A-431 [1]) was “Active”, the Activity (A-431 [3]) was 29.72% and the Activity (A-431 [4]) was 16.51%. The Activity (A-431 [6]) was 18.71%, the IC50 [7] was 18 µM and the inhibition [25] was “Active”. For the same compound, the IC50 (A-431 [10]) was 16 µM, the inhibition [13] was “Active” and the Activity (A-431 [14]) was 6.85%. For the same compound, the IC50 [26] was 14.4 µM, the Activity (A-431 [15]) was 29.39% and the IC50 [17] was 2.3 µM. The Activity (A-431 [18]) was “Active”, the IC50 (Hs 683) was 20 µM and the IC50 (A549) was 26 µM. For the same compound, the IC50 (MCF7) was 16 µM, the IC50 [21] was 5.8 µM and the Activity (A-431 [22]) was 45.05%. It also gave an IC50 (PC-3) of 32 µM, an Activity (A-431 [23]) of 11.39% and an Activity (A-431 [24]) of 42.38%. The IC50 (SK-MEL-28) was 29 µM and the Activity (A-431 [27]) was “Active”.
